Data reported in ChEMBL document CHEMBL5143576, “Tigliane Diterpenoids with Larvicidal, Antifungal, and α-Glucosidase Inhibitory Activities from Croton damayeshu” (J Nat Prod, 2022).
Values after ≈ are worked out from the molar mass of the structure shown.

Assays:
Type in all cases: functional
Plutella xylostella = experiment: Larvicidal activity against Plutella xylostella assessed as mortality and measured upto 4 days; conditions: 96 h, time <= 4 day
Candida albicans [1] = experiment: Antifungal activity against Fluconazole- resistant Candida albicans incubated for 24 hrs by microbroth dilution method
Candida albicans [2] = experiment: Antifungal activity against Fluconazole- resistant Candida albicans incubated for 24 hrs in presence of fluconazole by microbroth dilution method
Candida albicans [3] = experiment: Antifungal activity against Candida albicans incubated for 24 hrs by microbroth dilution method

SMILES | LC50 (Plutella xylostella) [nM] | MIC50 (Candida albicans [1]) [µg/mL] | MIC50 (Candida albicans [2]) [µg/mL] | MIC50 (Candida albicans [3]) [µg/mL]
CC/C=C\C/C=C\CCC(=O)O[C@@]12[C@H](OC(=O)[C@@H](C)CC)[C@@H](C)[C@@]3(O)[C@@H](C(=O)C(CO)=C[C@]4(O)C(=O)C(C)=C[C@@H]34)[C@@H]1C2(C)C | 160 | 159 (≈ 260 µM) | 11.9 | –
OC(Cn1cncn1)(Cn1cncn1)c1ccc(F)cc1F [FLUCONAZOLE] | – | – | – | 4.4 (≈ 14.4 µM)
Cc1cc(C(F)(C(F)(F)F)C(F)(F)F)ccc1NC(=O)c1cccc(I)c1C(=O)NC(C)(C)CS(C)(=O)=O [FLUBENDIAMIDE] | 140 | – | – | –
CC[C@H](C)C(=O)O[C@@]12[C@H](OC(=O)c3ccccc3)[C@@H](C)[C@@]3(O)[C@@H](C=C(CO)C[C@]4(O)C(=O)C(C)=C[C@@H]34)[C@@H]1C2(C)C | – | – | 5.1 | –
CC[C@H](C)C(=O)O[C@@H]1[C@@H](C)[C@@]2(O)[C@@H](C(=O)C(CO)=C[C@]3(O)C(=O)C(C)=C[C@@H]23)[C@@H]2C(C)(C)[C@]12OC(=O)[C@@H](C)CC | – | 15.1 (≈ 27.6 µM) | 14 | –
CCCCC/C=C\CCC(=O)O[C@@]12[C@H](OC(=O)[C@@H](C)CC)[C@@H](C)[C@@]3(O)[C@@H](C(=O)C(CO)=C[C@]4(O)C(=O)C(C)=C[C@@H]34)[C@@H]1C2(C)C | 190 | 200 (≈ 325 µM) | 63.4 | –
CCCCCCCCCC(=O)O[C@@]12[C@H](OC(=O)[C@@H](C)CC)[C@@H](C)[C@@]3(O)[C@@H](C(=O)C(CO)=C[C@]4(O)C(=O)C(C)=C[C@@H]34)[C@@H]1C2(C)C | – | 161 (≈ 261 µM) | 5.18 | –
CCCCCCCC(=O)O[C@@]12[C@H](OC(=O)[C@@H](C)CC)[C@@H](C)[C@@]3(O)[C@@H](C(=O)C(CO)=C[C@]4(O)C(=O)C(C)=C[C@@H]34)[C@@H]1C2(C)C | – | 114 (≈ 193 µM) | 50.5 | –
C/C=C(\C)C(=O)O[C@@H]1[C@@H](C)[C@@]2(O)[C@@H](C(=O)C(CO)=C[C@]3(O)C(=O)C(C)=C[C@@H]23)[C@@H]2C(C)(C)[C@]12OC(=O)CC/C=C\CCCCC | 260 | – | – | –
